Values after ≈ are worked out from the molar mass of the structure shown. Read-outs that look alike come from different tables or passages of the source.
Legend:
[1] = biological target: T1, Gpx from bovine erythrocytes (Bos taurus, UniProt P00435); assay type: biochemical
T1 sequence (P00435 1-205): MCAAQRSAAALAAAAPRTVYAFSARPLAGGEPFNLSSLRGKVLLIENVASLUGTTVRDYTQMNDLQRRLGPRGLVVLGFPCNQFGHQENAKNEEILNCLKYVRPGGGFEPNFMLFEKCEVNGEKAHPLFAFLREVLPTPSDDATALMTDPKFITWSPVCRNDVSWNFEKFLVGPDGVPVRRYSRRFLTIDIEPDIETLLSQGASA

[2] = biological target: T2, TrxR activity in HeLa cells (Homo sapiens, UniProt Q16881); assay: cell-based; conditions: for inhibition of cellular TrxR activity: 12 h
T2 sequence (Q16881 1-499 isoform Q16881-5): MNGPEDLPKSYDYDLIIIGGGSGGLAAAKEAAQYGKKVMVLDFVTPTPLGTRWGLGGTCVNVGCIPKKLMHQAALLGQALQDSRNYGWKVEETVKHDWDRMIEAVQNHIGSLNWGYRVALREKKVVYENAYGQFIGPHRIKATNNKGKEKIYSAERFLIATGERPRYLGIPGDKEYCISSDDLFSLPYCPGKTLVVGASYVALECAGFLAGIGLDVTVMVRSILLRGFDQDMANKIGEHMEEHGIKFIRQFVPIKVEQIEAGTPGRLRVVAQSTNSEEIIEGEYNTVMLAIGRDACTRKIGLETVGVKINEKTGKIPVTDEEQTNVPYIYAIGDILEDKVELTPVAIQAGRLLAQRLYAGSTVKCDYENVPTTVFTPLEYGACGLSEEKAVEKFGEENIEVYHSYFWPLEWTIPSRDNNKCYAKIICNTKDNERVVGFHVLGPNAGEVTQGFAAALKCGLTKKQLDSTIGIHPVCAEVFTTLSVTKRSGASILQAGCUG

rat TrxR [3] = biological target: T3, rat TrxR (Rattus norvegicus, UniProt O89049)
T3 sequence (O89049 1-499): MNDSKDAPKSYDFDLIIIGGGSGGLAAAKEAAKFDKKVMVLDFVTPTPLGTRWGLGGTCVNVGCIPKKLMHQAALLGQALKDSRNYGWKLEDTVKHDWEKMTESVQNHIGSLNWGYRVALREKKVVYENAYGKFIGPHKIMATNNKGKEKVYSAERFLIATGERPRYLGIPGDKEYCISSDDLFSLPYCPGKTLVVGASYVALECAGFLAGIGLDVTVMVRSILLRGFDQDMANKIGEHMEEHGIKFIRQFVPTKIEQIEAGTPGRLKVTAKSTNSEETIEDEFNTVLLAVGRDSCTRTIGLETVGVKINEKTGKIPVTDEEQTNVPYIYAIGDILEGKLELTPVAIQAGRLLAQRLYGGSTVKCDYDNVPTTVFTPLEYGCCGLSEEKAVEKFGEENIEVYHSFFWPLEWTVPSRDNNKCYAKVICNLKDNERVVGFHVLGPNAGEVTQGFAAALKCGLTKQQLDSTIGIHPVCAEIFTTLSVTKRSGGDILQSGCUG

[4] = biological target: T4, TrxR C-terminus active site Sec and Cys (Rattus norvegicus, UniProt O89049)
T4 sequence (O89049 1-499): T3 sequence (O89049 1-499)

rat TrxR [5] = biological target: T3, rat TrxR; assay: biochemical
TrxR = conditions: cited from earlier work
HeLa cells = assay: Cell viability MTS assay; assay type: cell-based, human; conditions: 2 and 3 μM selenite
HeLa = conditions: three day continuous treatment; cited from earlier work
GR = conditions: cited from earlier work
[6] = HeLa, read-out: inhibition of cellular TrxR activity

CC1=CC2=C(C)C3(CC3)[C@@](C)(O)C(=O)C2=C1 [AF, acylfulvene]
drug concentration at which an increase in Gpx activity was observed [1]: ≥ 20 µM
inhibition at 0.2 µM [2, 6]: 20%
inhibition at 1 µM [2, 6]: 35%
inhibition at 4 µM [2, 6]: 60%
reversibility of TrxR inhibition (gel filtration) (rat TrxR [3]): irreversible
intensity of BIAM label ([4]; pH 6.5): diminished in intensity
BIAM labeling ([4]; pH 8.5): almost abolished
IC50 (rat TrxR [5]): 7.3 µM
inhibition at 50 µM (rat TrxR [5]; read-out: TrxR activity inhibited within five minutes): > 60%

NC(=O)CI [IAA, iodoacetamide]
IC50 ([1]; read-out: IC50, inhibition of Gpx activity): 2400 µM

O=C(O)CCCc1ccc(N(CCCl)CCCl)cc1 [chlorambucil]
IC50, TrxR inhibition (TrxR): micromolar

N[C@@H](Cc1ccc(N(CCCl)CCCl)cc1)C(=O)O [melphalan]
IC50, TrxR inhibition (TrxR): micromolar

CC1=C2C(=C[C@@](C)(CO)[C@@H]2O)C(=O)[C@](C)(O)C12CC2 [illudin S, reference compound]
drug concentration at which an increase in Gpx activity was observed [1]: ≥ 1000 µM
effect on Gpx activity [1]: none of the tested drugs caused a decrease in enzyme activity
inhibition at 0.2 µM [2, 6]: 20%
inhibition at 1 µM [2, 6]: 50%
inhibition of TrxR without pre-reduction (rat TrxR [3]): no inhibition was observed
IC50 (rat TrxR [5]): 260 µM

C[S+]([O-])CCCCN=C=S (stereo not shown) [sulforaphane, reference compound]
effect in preliminary Se plus sulforaphane TrxR co-induction tests ([2]; HeLa cells, data not shown): potentially confounding direct inhibitory properties

O=[Se]([O-])[O-].[Na+].[Na+] [selenite, sodium selenite]
cytotoxicity of added selenite (cells detached from culture dish) (HeLa cells): caused cytotoxicity

CC1=C(CO)C2=C(C)C3(CC3)[C@@](C)(O)C(=O)C2=C1 [HMAF, hydroxymethylacylfulvene]
drug concentration at which an increase in Gpx activity was observed [1]: ≥ 2 µM
inhibition of cellular TrxR activity ([2]; HeLa cells, 0.2 μM): 20%
inhibition of cellular TrxR activity ([2]; HeLa cells, 1 μM): 60%
inhibition of cellular TrxR activity ([2]; HeLa cells, 4 μM): eliminated cellular TrxR activity
TrxR activity inhibited within five minutes (rat TrxR [3]; 7.5 μM HMAF, pre-reduced TrxR, 25 °C): over 60%
reversibility of TrxR inhibition (gel filtration) (rat TrxR [3]; 2 h reaction, unbound drug removed by size exclusion column): irreversible
IC50 (rat TrxR [3]; read-out: IC50, inhibition of DTNB reduction activity of TrxR, NADPH-reduced TrxR (80 nM), 2 h at 25 °C): 0.38 µM
intensity of BIAM label ([4]; pH 6.5 (free Sec), 5 μM HMAF): diminished in intensity
BIAM labeling ([4]; pH 8.5 (free Cys and Sec), 25 μM HMAF): almost abolished
IC50, cytotoxicity (HeLa): 0.02 µg/mL (≈ 0.0812 µM)
type of GR inhibition (GR): irreversible

— article PMC3210965 (Chemical research in toxicology, 2011)
